Structures can show the parent of a compound that is named as a salt. Bridge positions count the residues as written; N and C are the ends. Square brackets hold non-standard residues; d marks the D form. Peptide text beside a SMILES is read from it. * marks the point of attachment. X1 = CC[C@H](C)CCCCC(=O)*; Dab = NCC[C@H](N)C(=O)O
Key:
S. Typhimurium 14028 = format: cell-based, Salmonella enterica Typhimurium
[1] = in vivo; cited from earlier work
[2] = tested on: TIVAR − S. Typhimurium var. 5 (04)-9639; set-up: species or system BALB/c mice; details: in vivo
[3] = tested on: TIVAR + S. Typhimurium 14028; set-up: species or system BALB/c mice; details: in vivo

CC[C@H](C)CCCCC(=O)N[C@@H](CCN)C(=O)N[C@H](C(=O)N[C@@H](CCN)C(=O)N[C@H]1CCNC(=O)[C@H]([C@@H](C)O)NC(=O)[C@H](CCN)NC(=O)[C@H](CCN)NC(=O)[C@H](CC(C)C)NC(=O)[C@@H](CC(C)C)NC(=O)[C@H](CCN)NC1=O)[C@@H](C)O [Colistin sulfate, colistin sulfate] (X1-[Dab]T[Dab][Dab][Dab][dL]L[Dab][Dab]T; lactam 4-C (inferred); N-terminus assumed)
resistance linked to growth in LPM pH 5.5 medium (MIC ratio of LPM pH 5.5/pH 7.0 to MHB pH 5.5/pH 7.2) (S. Typhimurium 14028): 256 fold

O=C(N[C@H](CO)[C@H](O)c1ccc([N+](=O)[O-])cc1)C(Cl)Cl [Chloramphenicol, chloramphenicol]
effect of pH and media composition on efficacy of antibiotic (S. Typhimurium 14028): unaffected

CC[C@H](C)CCCCC(=O)N[C@@H](CCN)C(=O)N[C@H](C(=O)N[C@@H](CCN)C(=O)N[C@H]1CCNC(=O)[C@H]([C@@H](C)O)NC(=O)[C@H](CCN)NC(=O)[C@H](CCN)NC(=O)[C@H](CC(C)C)NC(=O)[C@@H](Cc2ccccc2)NC(=O)[C@H](CCN)NC1=O)[C@@H](C)O [Polymyxin B, polymyxin B] (X1-[Dab]T[Dab][Dab][Dab][dF]L[Dab][Dab]T; lactam 4-C (inferred); N-terminus assumed)
circulating PMB levels [1]: 0.5 to 2.5 mg/L
resistance linked to growth in LPM pH 5.5 medium (MIC ratio of LPM pH 5.5/pH 7.0 to MHB pH 5.5/pH 7.2) (S. Typhimurium 14028): 64 fold
mouse survival post-infection [2]: at least 10 days
time within which all treated mice died ([3]; mouse): ≤ 7 days

COc1cc(Cc2cnc(N)nc2N)cc(OC)c1OC [Trimethoprim, trimethoprim]
resistance linked to growth in LPM pH 5.5 medium (MIC ratio of LPM pH 5.5/pH 7.0 to MHB pH 5.5/pH 7.2) (S. Typhimurium 14028): 4 fold

CO/N=C(\C(=O)N[C@@H]1C(=O)N2C(C(=O)O)=C(CSC(=O)c3ccco3)CS[C@H]12)c1csc(N)n1 [Ceftiofur, ceftiofur]
effect of pH and media composition on efficacy of antibiotic (S. Typhimurium 14028): unaffected

CN(C)[C@@H]1C(O)=C(C(N)=O)C(=O)[C@@]2(O)C(O)=C3C(=O)c4c(O)cccc4[C@@](C)(O)[C@H]3C[C@@H]12 [Tetracycline, tetracycline]
effect of pH and media composition on efficacy of antibiotic (S. Typhimurium 14028): unaffected

O=C(O)c1cn(C2CC2)c2cc(N3CCNCC3)c(F)cc2c1=O [Ciprofloxacin, ciprofloxacin]
mouse survival post-infection [3]: at least 10 days

— publication PMC4588393 (EBioMedicine, 2015)
